Numbered stars: 1 amine (or outer) side, 2 acyl side, 3 side chain; on linkers, the order of the positions; unused ones are H or OH. Square brackets hold non-standard residues; d marks the D form. Peptide text beside a SMILES is read from it. X1 = NN([C@H](Cc1ccccc1)C(=O)[*:2])[*:1]; Orn(Nα-NH2) = NCCC[C@H](NN)C(=O)O; Orn = NCCC[C@H](N)C(=O)O
Tests used:
Type in all cases: cell-based
[1] = test system: Acinetobacter baumannii; assay: MIC determination against ESKAPE pathogens (broth culture, 96-well, turbidity); details: Acinetobacter baumannii strain 5075; 37° C.
Experimental: (§1) The antimicrobial activity of the compounds disclosed herein was tested against a variety of bacteria. The bacterial strains comprised a panel of drug-resistant gram-positive and gram-negative bacteria known as ESKAPE pathogens. The minimum inhibitory concentration (MIC) for the compounds were determined as follows. Broth cultures of ESKAPE strains were grown overnight before being diluted 1 in 1000 in fresh media. Sterile 96-well plates were loaded with culture, and compounds (in DMSO) were added at decreasing concentrations to equal a total volume of 200 μL per well. Care was taken to not add more than 2.0% DMSO to any well. Plates were then incubated at 37° C., and MICs determined after 24 h by visual inspection for a lack of turbidity in wells. All assays were performed in triplicate with identical results obtained.

[2] = test system: Enterobacter cloacae; assay: as above; details: Enterobacter cloacae strain 1454; 37° C.
Experimental: as §1

[3] = test system: Enterococcus faecium; assay: as above; details: Enterococcus faecium strain 1450; 37° C.
Experimental: as §1

[4] = test system: Pseudomonas aeruginosa; assay: as above; details: Pseudomonas aeruginosa strain 1419; 37° C.
Experimental: as §1

[5] = test system: Staphylococcus aureus; assay: as above; details: Staphylococcus aureus strain 635; 37° C.
Experimental: as §1

[6] = test system: Human red blood cells (hRBCs); assay: Hemolysis assay using whole human blood; details: for Hemolytic Activity (% Hemolysis): hRBCs, 15 min at 37° C., relative to 1.0% triton X-100
Experimental: Hemolytic Activity: The hemolytic activity of the compounds disclosed herein was also tested. A hemolysis assay was performed using whole human blood (Bioreclamation). […] Cells were incubated for 15 min at 37° C. before being centrifuged at 5500 g for 1 min to pellet nonlysed hRBCs. The supernatant was removed, added to a 96-well microtiter plate, and the OD543 was read using a Biotek synergy2 plate reader. The negative control was vehicle only (DMSO), and the positive control was 1.0% triton X-100.

[7] = test system: gram-negative bacteria; assay: Antimicrobial activity, summary for gram-negative bacteria; details: compared to GS
Experimental: as §1

| Compound | MC90 Results, Ab (−) [1] | MC90 Results, Ec (−) [2] | MC90 Results, Ef (+) [3] | MC90 Results, Pa (−) [4] | MC90 Results, Sa (+) [5] | Hemolytic Activity (% Hemolysis) ([6]; 6.25 μM) | Hemolytic Activity (% Hemolysis) ([6]; 12.5 μM) | Hemolytic Activity (% Hemolysis) ([6]; 25 μM) | Hemolytic Activity (% Hemolysis) ([6]; 50 μM) | activity against gram-negative bacteria [7] | toxicity to human cells compared to GS [6] |
| --- | --- | --- | --- | --- | --- | --- | --- | --- | --- | --- | --- |
| CC(C)C[C@@H]1NC(=O)[C@H](CCCN)NC(=O)[C@H](C(C)C)NC(=O)[C@@H]2CCCN2C(=O)[C@@H](Cc2ccccc2)N(N)C(=O)[C@H](CC(C)C)NC(=O)[C@H](CCCN)NC(=O)[C@H](C(C)C)NC(=O)[C@@H]2CCCN2C(=O)[C@@H](Cc2ccccc2)NC1=O [Compound 1] (HELM PEPTIDE1{L.[dF].P.V.[Orn].L.[NN([C@H](Cc1ccccc1)C(=O)[*:2])[*:1]].P.V.[Orn]}$PEPTIDE1,PEPTIDE1,1:R1-10:R2$$$V2.0) | >50 µM | >50 µM | >50 µM | >50 µM | >50 µM | 0.00% | 0.00% | 0.00% | 0.00% |  |  |
| CC(C)C[C@@H]1NC(=O)[C@H](CCCN)NC(=O)[C@H](C(C)C)NC(=O)[C@@H]2CCCN2C(=O)[C@@H](Cc2ccccc2)N(N)C(=O)[C@H](CC(C)C)NC(=O)[C@H](CCCN)NC(=O)[C@H](C(C)C)NC(=O)[C@@H]2CCCN2C(=O)[C@@H](Cc2ccccc2)N(N)C1=O [Compound 2] (HELM PEPTIDE1{L.[NN([C@H](Cc1ccccc1)C(=O)[*:2])[*:1]].P.V.[Orn].L.[NN([C@H](Cc1ccccc1)C(=O)[*:2])[*:1]].P.V.[Orn]}$PEPTIDE1,PEPTIDE1,1:R1-10:R2$$$V2.0) | 12.5 µM | >50 µM | 4 µM | 35 µM | 4 µM | 0.00% | 0.00% | 2.84% | 11.24% |  |  |
| CC(C)C[C@@H]1NC(=O)[C@H](CCCN)NC(=O)[C@H](C(C)C)NC(=O)[C@@H]2CCCN2C(=O)[C@@H](Cc2ccccc2)NC(=O)[C@H](CC(C)C)NC(=O)[C@H](CCCN)N(N)C(=O)[C@H](C(C)C)NC(=O)[C@@H]2CCCN2C(=O)[C@@H](Cc2ccccc2)NC1=O [Compound 3] (HELM PEPTIDE1{L.[dF].P.V.[Orn].L.[dF].P.V.[NCCC[C@@H](C(=O)[*:2])N(N)[*:1]]}$PEPTIDE1,PEPTIDE1,1:R1-10:R2$$$V2.0) | 6.5 µM | 30 µM | 3 µM | 13 µM | 2 µM | 0.00% | 0.00% | 1.49% | 13.68% |  |  |
| CC(C)C[C@@H]1NC(=O)[C@H](CCCN)N(N)C(=O)[C@H](C(C)C)NC(=O)[C@@H]2CCCN2C(=O)[C@@H](Cc2ccccc2)N(N)C(=O)[C@H](CC(C)C)NC(=O)[C@H](CCCN)NC(=O)[C@H](C(C)C)NC(=O)[C@@H]2CCCN2C(=O)[C@@H](Cc2ccccc2)NC1=O [Compound 4] (HELM PEPTIDE1{L.[dF].P.V.[Orn].L.[NN([C@H](Cc1ccccc1)C(=O)[*:2])[*:1]].P.V.[NCCC[C@@H](C(=O)[*:2])N(N)[*:1]]}$PEPTIDE1,PEPTIDE1,1:R1-10:R2$$$V2.0) | 6.5 µM | 30 µM | 3 µM | 15 µM | 2 µM | 0.00% | 0.00% | 1.98% | 14.00% |  |  |
| CC(C)C[C@@H]1NC(=O)[C@H](CCCN)NC(=O)[C@H](C(C)C)NC(=O)[C@@H]2CCCN2C(=O)[C@@H](Cc2ccccc2)N(N)C(=O)[C@H](CC(C)C)NC(=O)[C@H](CCCN)N(N)C(=O)[C@H](C(C)C)NC(=O)[C@@H]2CCCN2C(=O)[C@@H](Cc2ccccc2)N(N)C1=O [Compound 5] (cyclo(L[X1]PV[Orn]L[X1]PV[Orn(Nα-NH2)])) |  |  |  |  |  | 0.21% | 0.00% | 2.82% | 17.93% |  |  |
| CC(C)C[C@@H]1NC(=O)[C@H](CCCN)NC(=O)[C@H](C(C)C)NC(=O)[C@@H]2CCCN2C(=O)[C@@H](Cc2ccccc2)N(N)C(=O)[C@H](CC(C)C)NC(=O)[C@H](CCCN)N(N)C(=O)[C@H](C(C)C)NC(=O)[C@@H]2CCCN2C(=O)[C@@H](Cc2ccccc2)NC1=O [Compound 6] (HELM PEPTIDE1{L.[dF].P.V.[NCCC[C@@H](C(=O)[*:2])N(N)[*:1]].L.[NN([C@H](Cc1ccccc1)C(=O)[*:2])[*:1]].P.V.[Orn]}$PEPTIDE1,PEPTIDE1,1:R1-10:R2$$$V2.0) |  |  |  |  |  | 0.00% | 0.00% | 3.24% | 17.91% |  |  |
| CC(C)C[C@@H]1NC(=O)[C@H](CCCN)N(N)C(=O)[C@H](C(C)C)NC(=O)[C@@H]2CCCN2C(=O)[C@@H](Cc2ccccc2)NC(=O)[C@H](CC(C)C)NC(=O)[C@H](CCCN)N(N)C(=O)[C@H](C(C)C)NC(=O)[C@@H]2CCCN2C(=O)[C@@H](Cc2ccccc2)NC1=O [Compound 7] (HELM PEPTIDE1{L.[dF].P.V.[NCCC[C@@H](C(=O)[*:2])N(N)[*:1]].L.[dF].P.V.[NCCC[C@@H](C(=O)[*:2])N(N)[*:1]]}$PEPTIDE1,PEPTIDE1,1:R1-10:R2$$$V2.0) | 4 µM | 20 µM | 2 µM | 10 µM | 2 µM | 0.00% | 0.21% | 3.57% | 15.84% | improved significantly |  |
| CC(C)C[C@@H]1NC(=O)[C@H](CCCN)N(N)C(=O)[C@H](C(C)C)NC(=O)[C@@H]2CCCN2C(=O)[C@@H](Cc2ccccc2)N(N)C(=O)[C@H](CC(C)C)NC(=O)[C@H](CCCN)N(N)C(=O)[C@H](C(C)C)NC(=O)[C@@H]2CCCN2C(=O)[C@@H](Cc2ccccc2)NC1=O [Compound 8] (cyclo(L[dF]PV[Orn(Nα-NH2)]L[X1]PV[Orn(Nα-NH2)])) | 6 µM | >50 µM | 2 µM | 12 µM | 2 µM | 0.00% | 0.88% | 2.91% | 15.07% |  |  |
| CC(C)C[C@@H]1NC(=O)[C@H](CCCN)N(N)C(=O)[C@H](C(C)C)NC(=O)[C@@H]2CCCN2C(=O)[C@@H](Cc2ccccc2)N(N)C(=O)[C@H](CC(C)C)NC(=O)[C@H](CCCN)N(N)C(=O)[C@H](C(C)C)NC(=O)[C@@H]2CCCN2C(=O)[C@@H](Cc2ccccc2)N(N)C1=O [Compound 9] (cyclo(L[X1]PV[Orn(Nα-NH2)]L[X1]PV[Orn(Nα-NH2)])) | 5 µM | >50 µM | 2 µM | 15 µM | 2 µM | 0.00% | 2.75% | 6.19% | 25.01% |  | exception |
